In patent US8673894B2 (Hoffmann-La Roche Inc., priority 2010, dated 2014) one finds IC50 data, which are given here for 19 compounds.

One assay has as its system Aβ40. In words: Cellular Aβ-lowering assay. The conditions noted are these: HEK293 cells stably expressing human APP695, Aβ40 in supernatant by ELISA after 18-20 hrs; read-out: Cellular assay Abeta40 IC50. The format is cell-based. The protocol:
Cellular Aβ-Lowering Assay:
Human HEK293 cells which are stably transfected with a vector expressing a cDNA of the human APP wt gene (APP695) were used to assess the potency of the compounds in a cellular assay. The cells were seeded in 96-well microtiter plates in cell culture medium (Iscove, plus 10% (v/v) fetal bovine serum, glutamine, penicillin/streptomycin) to about 80% confluence and the compounds were added at a 10× concentration in 1/10 volume of medium without FCS containing 8% DMSO (final concentration of DMSO was kept at 0.8% v/v). After 18-20 hrs incubation at 37° C. and 5% CO2 in a humidified incubator the culture supernatant was harvested for the determination of Aβ40 concentrations. 96well ELISA plates (e.g., Nunc MaxiSorb) were coated with monoclonal antibody which specifically recognize the C-terminal end of Aβ40 (Brockhaus et al., NeuroReport 9, 1481-1486; 1998). After blocking of non-specific binding sites with e.g. 1% BSA and washing, the culture supernatants were added in suitable dilutions together with a horseradish peroxidase-coupled Aβ detection antibody (e.g., antibody 4G8, Senetek, Maryland Heights, Mo.) and incubated for 5 to 7 hrs. Subsequently the wells of the microtiter plate were washed extensively with Tris-buffered saline containing 0.05% Tween 20 and the assay was developed with tetramethylbenzidine/H2O2 in citric acid buffer. After stopping the reaction with one volume 1 N H2SO4 the reaction was measured in an ELISA reader at 450 nm wavelength. The concentrations of Aβ in the culture supernatants were calculated from a standard curve obtained with known amounts of pure Aβ peptide.

Assay [1] addresses T1, endogenous cellular BACE2 (Rattus norvegicus, UniProt Q6IE75).
T1 construct: endogenous cellular BACE2 in the Ins1e rat cell line; endogenous in cells; host or cells: INS-TMEM27 (INS1e-derived rat insulinoma cell line with doxycycline-inducible full-length human TMEM27)
T1 sequence (Q6IE75 63-514): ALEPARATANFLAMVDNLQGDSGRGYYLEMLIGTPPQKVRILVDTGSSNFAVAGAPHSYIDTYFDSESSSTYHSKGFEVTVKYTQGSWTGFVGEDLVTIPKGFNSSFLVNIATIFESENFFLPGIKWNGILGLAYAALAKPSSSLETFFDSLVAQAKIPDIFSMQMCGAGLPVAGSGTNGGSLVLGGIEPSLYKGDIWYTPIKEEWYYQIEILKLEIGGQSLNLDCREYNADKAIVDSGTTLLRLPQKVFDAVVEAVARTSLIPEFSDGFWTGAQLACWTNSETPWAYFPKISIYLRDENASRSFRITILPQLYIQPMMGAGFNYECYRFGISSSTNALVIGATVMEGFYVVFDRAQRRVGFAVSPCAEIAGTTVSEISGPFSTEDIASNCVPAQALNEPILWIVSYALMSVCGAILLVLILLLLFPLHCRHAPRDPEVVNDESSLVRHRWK
In words: Assay for BACE inhibition by measuring cellular TMEM27 cleavage. It is filed as cell-based. The conditions noted are these: INS-TMEM27 (INS1e-derived) cells, shed human TMEM27 in supernatant by ELISA. From the text:
Assay for BACE Inhibition by Measuring Cellular TMEM27 Cleavage:
The assay uses the principle of inhibition of human TMEM27 cleavage by endogenous cellular BACE2 in the Ins1e rat cell line and shedding from the cell surface into the culture medium, followed by detection in an ELISA assay. Inhibition of BACE2 prevents the cleavage and shedding in a dose-dependent manner.
The stable cell line “INS-TMEM27” represents an INS1e-derived cell line with inducible expression (using the TetOn system) of full-length hTMEM27 in a doxycycline-dependent manner. The cells are cultured throughout the experiment in RPMI1640+ Glutamax (Invitrogen) Penicillin/Streptomycin, 10% Fetal bovine serum, […], […], 100 micrograms/ml G418 and 100 microgram/ml hygromycin and are grown inadherent culture at 37° C. in a standard CO2 cell culture incubator.
INS-TMEM27 cells are seeded in 96-well plates. After 2 days in culture, BACE2 inhibitor is added in a range of concentrations as required by the assay and after a further two hours, doxycycline is added to a final concentration of 500 ng/ml. The cells are incubated for a further 46 hours and the supernatant harvested for detection of shed TMEM27.
An ELISA assay (using a pair of mouse anti-human-TMEM27 antibodies, raised against the extracellular domain of TMEM27) is used for detection of TMEM27 in the culture medium. An EC50 for BACE2 inhibition is calculated using the ELISA readout for each inhibitor concentration with standard curve-fitting software such as XLFit for the Excel spreadsheet program.

Structures can show the parent of a compound that is named as a salt.

As to `C[C@]1(c2cc(NC(=O)C3(C(F)(F)F)CC3)ccc2F)N=C(N)COCC1(F)F` [Example 33, (R)-N-(3-(3-amino-6,6-difluoro-5-methyl-2,5,6,7-tetrahydro-1,4-oxazepin-5-yl)-4-fluorophenyl)-1-(trifluoromethyl)cyclopropanecarboxamide formate], the IC50 (in general, the concentration at which inhibition is half-maximal) with Aβ40 is 90 nM; in assay [1], 240 nM.
Turning to `CCn1cc(Cl)c(C(=O)Nc2ccc(F)c([C@@]3(CC)N=C(N)COCC3(F)F)c2)n1` [Example 91, (R)-N-(3-(3-Amino-5-ethyl-6,6-difluoro-2,5,6,7-tetrahydro-1,4-oxazepin-5-yl)-4-fluorophenyl)-4-chloro-1-ethyl-1H-pyrazole-3-carboxamide], the IC50 stood at 1230 nM in the assay with Aβ40 and 453 nM in assay [1].
In the same order, the values of `CC1(C)OCC[C@@](C)(c2cc(NC(=O)c3ccc(F)cn3)ccc2F)N=C1N` [Example 50, 5-Fluoro-pyridine-2-carboxylic acid [3-((S)-3-amino-2,2,5-trimethyl-2,5,6,7-tetrahydro-[1,4]oxazepin-5-yl)-4-fluoro-phenyl]-amide] are 160 nM and 71 nM.
With `Cn1ccc(C(=O)Nc2ccc(F)c([C@@]3(C)N=C(N)COCC3(F)F)c2)n1` [Example 43, (R)-N-(3-(3-amino-6,6-difluoro-5-methyl-2,5,6,7-tetrahydro-1,4-oxazepin-5-yl)-4-fluorophenyl)-1-methyl-1H-pyrazole-3-carboxamide formate], the IC50 with Aβ40 amounted to 23 nM; in assay [1], 4.7 nM.
Regarding `Cc1ccc(C(=O)Nc2ccc(F)c([C@@]3(C)N=C(N)COCC3(F)F)c2)nc1` [Example 94, (R)-N-(3-(3-Amino-6,6-difluoro-5-methyl-2,5,6,7-tetrahydro-1,4-oxazepin-5-yl)-4-fluorophenyl)-5-methylpicolinamide formate], the figures for the IC50 (with Aβ40; in assay [1]) were 10 nM and 24.3 nM, respectively.
Taken in the same sequence, the figures for `C[C@]1(c2cc(NC(=O)c3ncccc3Cl)ccc2F)N=C(N)COCC1(F)F` [Example 36, (R)-N-(3-(3-amino-6,6-difluoro-5-methyl-2,5,6,7-tetrahydro-1,4-oxazepin-5-yl)-4-fluorophenyl)-3-chloropicolinamide formate] were 38 nM and 8.4 nM.
As for `C[C@]1(c2cc(NC(=O)c3ccc(OCF)cn3)ccc2F)N=C(N)COCC1(F)F` [Example 70, (R)-N-(3-(3-Amino-6,6-difluoro-5-methyl-2,5,6,7-tetrahydro-1,4-oxazepin-5-yl)-4-fluorophenyl)-5-(fluoromethoxy)picolinamide formate], the figures for the IC50 (in the assay on Aβ40; in assay [1]) were 5.2 nM and 172 nM, respectively.
`C[C@]1(c2cc(NC(=O)c3cnc(OCC(F)F)cn3)ccc2F)N=C(N)COCC1(F)F` [Example 74, (R)-N-(3-(3-Amino-6,6-difluoro-5-methyl-2,5,6,7-tetrahydro-1,4-oxazepin-5-yl)-4-fluorophenyl)-5-(2,2-difluoroethoxy)pyrazine-2-carboxamide formate]: the IC50 in the assay on Aβ40 was 10 nM; in assay [1], 3380 nM.
Regarding `C[C@]1(c2cc(NC(=O)c3nsc(Cl)n3)ccc2F)N=C(N)COCC1(F)F` [Example 73, (R)-N-(3-(3-Amino-6,6-difluoro-5-methyl-2,5,6,7-tetrahydro-1,4-oxazepin-5-yl)-4-fluorophenyl)-5-chloro-1,2,4-thiadiazole-3-carboxamide formate], the IC50 was determined as 300 nM with Aβ40 and 6520 nM in assay [1].
For `CC1(C)OCC(N)=N[C@](C)(c2cc(NC(=O)c3ccc(C#N)cn3)ccc2F)C1(F)F` [Example 111, (R)-N-(3-(3-amino-6,6-difluoro-5,7,7-trimethyl-2,5,6,7-tetrahydro-1,4-oxazepin-5-yl)-4-fluorophenyl)-5-cyanopicolinamide], the IC50 with Aβ40 is 0.7 nM; in assay [1], 30.5 nM.
In the same order, the values of `C[C@@]1(c2cc(NC(=O)c3ccc(OCC(F)(F)F)cn3)ccc2F)CCOCC(N)=N1` [Example 12, 5-(2,2,2-Trifluoro-ethoxy)-pyridine-2-carboxylic acid [3-((S)-3-amino-5-methyl-2,5,6,7-tetrahydro-[1,4]oxazepin-5-yl)-4-fluoro-phenyl]-amide] are 9 nM and 120 nM.
In the same order, the values of `CC[C@]1(c2cc(NC3CCCC3)ccc2F)N=C(N)COCC1(F)F` [Example 119, (R)-5-(5-(Cyclopentylamino)-2-fluorophenyl)-5-ethyl-6,6-difluoro-2,5,6,7-tetrahydro-1,4-oxazepin-3-amine] are 0.8 nM and 9.03 nM.
Taken in the same sequence, the figures for `CC[C@]1(c2cc(NC(=O)c3ncccc3Cl)ccc2F)N=C(N)COCC1(F)F` [Example 76, (R)-N-(3-(3-Amino-5-ethyl-6,6-difluoro-2,5,6,7-tetrahydro-1,4-oxazepin-5-yl)-4-fluorophenyl)-3-chloropicolinamide] were 4 nM and 568 nM.
As for `C[C@]1(c2cc(NC(=O)c3ncc(Cl)cc3Cl)ccc2F)N=C(N)COCC1(F)F` [Example 39, (R)-N-(3-(3-amino-6,6-difluoro-5-methyl-2,5,6,7-tetrahydro-1,4-oxazepin-5-yl)-4-fluorophenyl)-3,5-dichloropicolinamide formate], the IC50 in the assay on Aβ40 is 2.6 nM; in assay [1] it was 3 nM.
In the same order, the values of `C[C@]1(c2cc(NC(=O)c3ccc(F)cn3)ccc2F)N=C(N)COC[C@@H]1F` [Example 62, N-(3-((5R,6R)-3-amino-6-fluoro-5-methyl-2,5,6,7-tetrahydro-1,4-oxazepin-5-yl)-4-fluorophenyl)-5-fluoropicolinamide] are 1.8 nM and 1 nM.
Taken in the same sequence, the figures for `COc1cnc(C(=O)Nc2ccc(F)c([C@@]3(C)N=C(N)COCC3(F)F)c2)cn1` [Example 109, (R)-N-(3-(3-Amino-6,6-difluoro-5-methyl-2,5,6,7-tetrahydro-1,4-oxazepin-5-yl)-4-fluorophenyl)-5-methoxypyrazine-2-carboxamide formate] were 1.9 nM and 143 nM.
For `C[C@]1(c2cc(NC(=O)c3csc(Cl)n3)ccc2F)N=C(N)COCC1(F)F` [Example 66, (R)-N-(3-(3-Amino-6,6-difluoro-5-methyl-2,5,6,7-tetrahydro-1,4-oxazepin-5-yl)-4-fluorophenyl)-2-chlorothiazole-4-carboxamide formate], the IC50 with Aβ40 came to 15.3 nM; in assay [1], 54.4 nM.
In the case of `C[C@]1(c2cc(NC(=O)c3ccc(Cl)cn3)ccc2F)N=C(N)COCC1(F)F` [Example 26, (R)-N-(3-(3-amino-6,6-difluoro-5-methyl-2,5,6,7-tetrahydro-1,4-oxazepin-5-yl)-4-fluorophenyl)-5-chloropicolinamide], the IC50 with Aβ40 amounted to 1.3 nM.
On to `C[C@@]1(c2cc(NC(=O)c3ccc(Cl)cn3)ccc2F)C[C@@H](c2ccccc2)OCC(N)=N1` [Example 69], for which the IC50 with Aβ40 is 5070 nM.
